Measured values taken from patent US6903121B1, “TREATMENT OF TUMORS WITH ACETYLENES DISUBSTITUTED WITH A PHENYL OR HETEROAROMATIC GROUP AND A SUBSTITUTED CHROMANYL, THIOCHROMANYL OR TETRAHYDROQUINOLINYL GROUP IN COMBINATION WITH OTHER ANTI-TUMOR AGENTS” (Allergan, Inc., priority 2000, dated 2005).
“Also recorded” adds a separate entry of the source.

How the values were obtained:
[1] = system: carcinoma cell lines; details: in some of the cell lines; Fanjul et al. 1996; cited from earlier work
[2] = system: MCF-7 human breast cancer lines; details: Toma et al. 1997; cited from earlier work
[3] = system: SK-BR-3 cells; experiment: Cell proliferation assay (BrdU incorporation) in SK-BR-3 breast cancer cells; assay type: cell-based, human
Description: (§1) The SK-BR-3, T47D and HL-60 cell cultures in which the assay procedures were performed are also well known and are available from sources well known in the art. Specifically, as is known, T47D is an estrogen receptor positive (ER^+) human breast cancer cell line, and SK-BR-3 is an estrogen receptor negative (ER^−) human breast cancer cell line. HL-60 is a well known human myeloid leukemia cell line. The assay procedure for the breast cancer lines itself is well known in the art and involves determining incorporation of 5-bromo-2′-deoxyuridine (BrdU) into the cells. As is known, incorporation of less BrdU represents less cell proliferation (inhibition of cell proliferation), and this assay is accepted in the art as a measure of anti-proliferative or anti-tumor activity of the assayed agent or agents. The assay procedure for the HL-60 cell line is also well-known in the art. It involves measuring the concentration of formazan dye which is cleaved from 3-[4,5-dimethylthiazole-2-yl]-2,5-diphenyltetrazolium bromide by viable HL-60 cells.
(§2) The estrogen receptor-positive (ER^+) cell line T-47D and the ER^− cell line SK-BR-3 were cultured in Dulbecco's modification of Eagle's medium (DMEM Gibco BRL, Gaithersburg, Md.) supplemented with 10% fetal bovine serum (HyClone, Logan, Utah), 2 mM L-glutamine and 1% antibiotics-antimycotics (Gibco BRL). Cell lines were obtained from the American Type Culture Collection (ATCC, Rockville, Md., HTB-133 and HTB-30 for T-47D and SK-BR-3, respectively). Cells were cultured at 37 °C in a humidified atmosphere containing 5% CO2.
(§3) Proliferation of cancer cell lines was determined using a commercial cell proliferation kit (Roche Diagnostics), essentially following the instructions of the manufacturer. Cells were seeded into 96-well tissue culture plates (Corning Incorporated, Corning, N.Y.) at a concentration of 3000 cells/well. After 24 hours, cells were treated continuously with tazarotene (Formula 3) and/or interferons (IFNs) or solvent alone. The appropriate concentrations of tazarotene (Formula 3) used in this study were between 10^−11 M and 10^−6M; IFN concentrations were between 10 and 1000 Unit/ml. Culture media were changed every 72 hours. After 7 days, 10 μl of 5-bromo-2′-deoxyuridine (BrdU) was added to each well. Incubation with BrdU was stopped 24 hours later by adding 100 μl of anti-BrdU antibody to each well. The amount of BrdU incorporated into the DNA of proliferating cells was assessed by measuring absorbance at […]. Each experiment was performed in triplicate in three independent experiments.
(§4) The growth inhibition observed for a combined treatment with tazarotene (Formula 3) and IFNs was analyzed for both synergistic and additive effects. The criteria for these effects have been discussed by three different groups (Aapro et al., Cancer Chemother. Pharmacol., 10: 161-166, 1983, Marth et al. J. Natl Cancer Inst., 77:1197-1202, 1986, Kurbacher et al., Cancer Letters, 103: 183-189, 1996). The mathematical multiplication of the two surviving fractions after the treatment of either with tazarotene (Formula 3) or with the respective interferon is the calculated value for simple additivity of both agents in combination. This calculated value is compared to the actual value observed to determine the nature of the combination effect. […] Synergism or inhibition was determined for each experiment individually, with the P value being 0.05 in comparison to the simple additivity hypothesis.

[4] = system: HL-60 cells; experiment: Cell proliferation assay (MTT) in HL-60 leukemia cell line; assay type: cell-based, human
Description: as §1
The human myeloid leukemia cell line HL-60 was cultured in Iscove's modified Dulbecco's medium (IMDM Gibco BRL, Gaithersburg, Md.) supplemented with 10% fetal bovine serum (HyClone, Logan, Utah), 2 mM L-glutamine and 1% antibiotics-antimycotics (Gibco BRL). HL-60 cells were obtained from the American Type Culture Collection (ATCC, Rockville, Md., CCL-240). Cells were cultured at 37° C. in a humidified atmosphere containing 5% CO2.
Proliferation of the HL-60 leukemia cell line was determined by a cell viability and non-radioactive commercial cell proliferation kit (MTT assay; Roche Diagnostics, Indianapolis, Ind.), essentially by following the instructions of the manufacturer. Cells were seeded into 96-well tissue culture plates (Corning Incorporated, Corning, N.Y.) at a concentration of 1000 cells/well. After 24 hours, the cells were treated continuously with tazarotene (Formula 3) and/or IFNs or solvent alone. […] The quantification of viable cells, capable of cleaving MTT to form a formazan dye, was assessed by measuring absorbance at 590 nm. […]
as §4, with “The criteria for these effects have been discussed by three different groups (Aapro et al., Cancer Chemother. Pharmacol., 10: 161-166, 1983, Marth et al. J. Natl Cancer Inst., 77:1197-1202, 1986, Kurbacher et al., Cancer Letters, 103: 183-189, 1996).” left out

[5] = system: T-47D cells; experiment: Cell proliferation assay (BrdU incorporation) in T-47D breast cancer cells; assay type: cell-based, human
Description: as §1, §2, §3, §4

[6] = system: MDA-MB 231 human carcinoma cell line; details: Kurbacher et al. 1996; cited from earlier work
[7] = system: MCF-7 human carcinoma cell line; details: Kurbacher et al. 1996; cited from earlier work

## COC(=O)c1ccc(/C(C)=C/c2ccc3c(c2)C(C)(C)CCC3(C)C)cc1 [SRI 11220]
[1]
  anti-proliferative activity in combination with interferon: synergistic

## CC1=C(/C=C/C(C)=C/C=C/C(C)=C/C(=O)O)C(C)(C)CCC1 [all trans retinoic acid]
[2]
  combination effect with other chemotherapeutic agents such as tamoxifen (TAM): synergistic effect
  combination effect with α interferon (α IFN): synergistic effects

## CCOC(=O)c1ccc(C#Cc2ccc3c(c2)C(C)(C)CCS3)nc1 [tazarotene, ethyl 6-[2-(4,4-dimethylthiochroman-6-yl)ethynyl]nicotinate]
[3]; IFNα constant 100 U/ml, tazarotene varied, FIG. 1
  anti-proliferative effect of combination with IFNα (combination effect vs theoretically additive curve): synergism; also recorded: synergistic effect
[3]; IFNβ constant 10 U/ml, tazarotene varied, FIG. 3
  anti-proliferative effect of combination with IFNβ (combination effect): synergism; also recorded: significant synergistic effect
[3]; IFNγ constant 100 U/ml, tazarotene varied, FIG. 5
  anti-proliferative effect of combination with IFNγ (combination effect): synergism; also recorded: significant synergistic effect
[3]; tazarotene constant 10 nM, IFNα varied 0 to 1000 U/ml, FIG. 7
  anti-proliferative effect of combination with IFNα (combination effect): striking synergism
[3]; tazarotene constant 10 nM, IFNβ varied 0 to 1000 U/ml, FIG. 9
  anti-proliferative effect of combination with IFNβ (combination effect): striking synergism
[3]; tazarotene constant 10 nM, IFNγ varied 0 to 1000 U/ml, FIG. 11
  anti-proliferative effect of combination with IFNγ (combination effect): striking synergism
[4]; IFNα constant 100 U/ml, tazarotene varied, FIG. 13
  anti-proliferative effect of combination with IFNα (combination effect): significant synergism
[4]; IFNβ constant 100 U/ml, tazarotene varied, FIG. 14
  anti-proliferative effect of combination with IFNβ (combination effect): significant synergism
[4]; tazarotene constant 50 nM, IFNα varied 0 to 1000 U/ml, FIG. 15
  anti-proliferative effect of combination with IFNα (combination effect): significant synergism
[4]; tazarotene constant 50 nM, IFNβ varied 0 to 1000 U/ml, FIG. 16
  anti-proliferative effect of combination with IFNβ (combination effect): significant synergism
[5]; IFNα constant 100 U/ml, tazarotene varied, FIG. 2
  anti-proliferative effect of combination with IFNα (combination effect): synergism, although not as striking as in the assays with SK-BR-3 cells
[5]; IFNβ constant 100 U/ml, tazarotene varied, FIG. 4
  anti-proliferative effect of combination with IFNβ (combination effect): synergism; also recorded: synergism, although not as striking as in the assays with SK-BR-3 cells
[5]; IFNγ constant 100 U/ml, tazarotene varied, FIG. 6
  anti-proliferative effect of combination with IFNγ (combination effect): synergism, although not as striking as in the assays with SK-BR-3 cells
[5]; tazarotene constant 10 nM, IFNα varied 0 to 1000 U/ml, FIG. 8
  anti-proliferative effect of combination with IFNα (combination effect): weak synergism
[5]; tazarotene constant 10 nM, IFNβ varied 0 to 1000 U/ml, FIG. 10
  anti-proliferative effect of combination with IFNβ (combination effect): significant synergism

## O=C1O[C@H]([C@@H](O)CO)C(O)=C1O [vitamin C]
[6]
  combination effect with certain chemotherapeutic anti-tumor agents: synergistic action
[7]
  combination effect with certain chemotherapeutic anti-tumor agents: synergistic action
